Source: patent US8852917B2, “Thuricin CD, an antimicrobial for specifically targeting Clostridium difficile” (University College Cork, priority 2007, dated 2014)
Values after ≈ are worked out from the molar mass of the structure shown. “Also recorded” adds a separate entry of the source. Where two headings read alike, the source gives them in different places.

Tests used:
[1] = system: C. difficile ribotypes 001, 106 and 027; assay: Determination of minimum inhibitory concentrations; format: cell-based
bifidobacteria strains = format: cell-based
Gram negative organisms = format: cell-based; settings: WDA
Procedure: B. thuringiensis DPC 6431 was grown aerobically from stock for ˜6 h in BHI broth and sub-cultured into fresh BHI at 0.1% for 18 h in BHI. Following growth, the culture was centrifuged twice at 8200 g for 10 min. Activity was determined using the well diffusion assay (WDA) as described by Ryan et al., (1996). Activity against a range of target organisms was determined by WDA. Cultures were grown over-night in various broth media and temperatures as outlined in Table 1. Twenty ml of the appropriate agar medium was inoculated with 100 μl of target organism and, once solidified, 50 μl of the cell free supernatant (CFS) of B. thuringiensis DPC 6431 was added to a well made in the agar. Plates were incubated under conditions appropriate for the various target organisms as outlined in Table 1. Zones of inhibition (mm) were measured and relative sensitivity determined by measuring the diameter of the zone. Zones of size ≦9 mm were designated +; of 10-15 mm were designated ++; of 16-21 mm were designated +++; of ≧22 mm were designated ++++;

[2] = Sensitivity to enzymatic degradation; format: in vitro ADME; settings: FIG. 1; Proteinase K (6.5 mg/ml) applied to the edge of the well
Procedure: The cell free supernatant was tested for sensitivity to the following enzymes at a concentration of 25 mg/ml: pepsin, trypsin, peptidase, α-chymotrypsin type V111, α-chymotrypsin type 11 and proteinase K. All enzymes were purchased from Sigma. Cell free supernatants were incubated with the enzymes for 1 h at 37° C. Activity post enzyme treatment was determined using the well diffusion method using C. difficile ATCC 43593 as the target organism. Sensitivity of the antimicrobial to Proteinase K was also determined by applying 5 μl of Proteinase K (6.5 mg/ml) to the edge of the well containing the sample.

[3] = Activity over a range of pH; format: physicochemical
Procedure: (§1) Activity over a range of pH was determined in CFS by adjusting pH from 2 to 9 using either 0.5M HCl or 1M NaOH. The effect of acid or base on the target organism was determined using uninoculated broth medium adjusted through the pH range. Activity was determined using WDA assay using C. difficile ATCC 43593 as the target strain. Heat sensitivity was determined by heating the CFS for 15 min at a range of temperatures from 37° C. to 100° C.; the control was incubated at 37° C. Activity was determined using WDA with C. difficile ATCC 43593 as the target organism.

Heat sensitivity = format: physicochemical
Procedure: as §1

C. difficile R027 NAP1 = assay: Kill curves; format: cell-based
Procedure: The effect of thuricin against C. difficile R027 NAP1, L. monocytogenes NCTC 5348, Lb. casei 338 and B. lactis Bb12 was determined in Reinforced Clostridium Medium (RCM Merck), Brain Heart Infusion broth (Merck), MRS (de Mann-Rogosa-Sharpe) medium (Difco) and MRS containing 0.05% cystein respectively. Three independent cultures were prepared for each strain and grown overnight at 37° C. Three replicate one ml volumes of sterile double strength broth medium was prepared for each strain and inoculated with the test organisms to give initial cell numbers of 10^5-10^6/ml. Thuricin was added to give the required concentration and the volume made up to 2 ml with sterile distilled water. The bacteriocin was omitted from the control and volume substituted with sterile water. Samples were removed at intervals, serially diluted and plated on RCA, BHI agar, MRS agar or MRS agar containing 0.05% cystein depending on the strain. Plates were counted after 24 h (L. monocytogenes), or 48 h (C. difficile, Lb. casei 338 and B. lactis Bb12) incubation at 37° C.

[4] = system: L. monocytogenes NCTC 5348; format: cell-based
Lb. casei 338 = format: cell-based
B. lactis Bb12 = format: cell-based
C. difficile = assay: Lysis of C. difficile by thuricin CD; format: cell-based
Procedure: The lytic effect of thuricin CD on C. difficile was carried out as described by Rea et at (2007).

[5] = system: C. difficile DPC 6537 (PCR ribotype 001); assay: Model faecal fermentation; format: cell-based; settings: 500 μg thuricin added at 0, 8, and 16 hr; spiked with 10^6 cfu C. difficile ribotype 001/ml; after 16 hr incubation
Procedure: C. difficile DPC 6537 (PCR Ribot e 001) was taken from −80° C. stock and streaked on Fastidious Anaerobic Agar and incubated anaerobically at 37° C. On the night before the experiment ˜1 colony was inoculated into 10 ml of RCM which has been previously boiled and cooled and incubated anaerobically at 37° C.
Faecal growth medium was prepared as described by Fooks and Gibson (2003) with minor modifications as follows. The ingredients were made up to 800 ml, the pH adjusted to 6.8. One hundred and sixty ml was added to each fermentation vessel and autoclaved at 121° C. for 15 min. Prior to inoculation the faecal medium was sparged with O2-free nitrogen for ˜1 h. A 20% faecal slurry was made from a fresh faecal sample in 50 mM phosphate buffer containing 0.05% cystein which has been previously boiled and cooled just prior to use and mixed using a stomacher for no longer than 1 min. Two fermentor vessels were inoculated with 35 ml of the slurry preparation and 2 ml of the overnight culture of C. difficile. […] Samples were also taken for analysis of thuricin activity using WDA and MALDI-TOF MS.
(§2) C. difficile was enumerated on CCEY agar (LabM) and Bifidobacterium sp. on modified MRS agar containing 0.05% cystein and 50 mg mupirocin/1 after 48 h and 72 h at 37° C. incubation respectively.

Bifidobacteria = assay: Model faecal fermentation; format: cell-based, Bifidobacterium sp.; settings: up to 16 hr incubation
Procedure: Faecal growth medium was prepared as described by Fooks and Gibson (2003) with minor modifications as follows. The ingredients were made up to 800 ml, the pH adjusted to 6.8. One hundred and sixty ml was added to each fermentation vessel and autoclaved at 121° C. for 15 min. Prior to inoculation the faecal medium was sparged with O2-free nitrogen for ˜1 h. A 20% faecal slurry was made from a fresh faecal sample in 50 mM phosphate buffer containing 0.05% cystein which has been previously boiled and cooled just prior to use and mixed using a stomacher for no longer than 1 min. Two fermentor vessels were inoculated with 35 ml of the slurry preparation and 2 ml of the overnight culture of C. difficile. To the test vessel 1 ml of 100 mg/ml thuricin was added at 0, 8 and 16 h incubation and both vessels sampled at 0, 4, 8, 12, 16, 20 and 24 h for both microbiological analyses of C. difficile and Bifidobacteria sp. Samples were also taken for analysis of thuricin activity using WDA and MALDI-TOF MS.
as §2

[6] = Stability in simulated gastric, ileal and colon juice; format: in vitro ADME; settings: 37° C., 1 mg/ml, WDA
Procedure: Effect of simulated gastric, ileal and colon juice on stability of thuricin CD C. difficile 64539 was grown overnight and inoculated at 1.25% into Reinforced Clostridium Agar (RCA). Simulated gastric, ileal and colon juice were prepared as outlined by Breumer et al (1992). Purified thuricin CD was made up to 100 mg/ml in 70% IPA. Seventy μl (1 mg/ml final concentration) of thuricin was added to 7000 μl of porcine gastric and ileum juice and incubated at 37° C. At intervals samples were taken and activity was measured with the WDA using C. difficile seeded plates. The samples were also assayed for the presence of the Trn-α and Trn-β peptides using MALDI-TOF MS

[7] = Stability in ex vivo porcine gastric and ileal juice; format: in vitro ADME; settings: 37° C., 1 mg/ml, WDA
Procedure: Effect of ex vivo porcine gastric and ileal juice on the stability of the thuricin CD C. difficile 64539 was grown overnight and inoculated at 1.25% into Reinforced Clostridium Agar (RCA). Purified Thuricin CD was prepared as described above. Seven ml of porcine ileal and gastric juice was centrifuged for 15 min at 12,000 rpm to remove debris. Seventy μl (1 mg/ml) of thuricin was added to 7000 μl of porcine gastric and ileum juice and incubated at 37° C. At intervals samples were taken and activity was measured using the WDA and checked for the presence of the Trn-α and Trn-β peptides using MALDI-TOF MS.

[8] = system: Lactobacillus and Bifidobacterium populations; settings: simple faecal fermentations; concentrations required to kill C. difficile; cited from earlier work
[9] = C. difficile ribotype 001, 16 h at 37° C. anaerobically, read-out: MIC
[10] = C. difficile ribotype 106, 16 h at 37° C. anaerobically, read-out: MIC

Which results are given for `Cc1ncc([N+](=O)[O-])n1CCO` [Metronidazole, metronidazole]?
MIC ([1]; Clostridioides difficile, 16 h, C. difficile ribotype 001, 16 h at 37° C. anaerobically, read-out: MIC): 3.12 µM (≈ 0.535 µg/mL); MIC ([1]; Clostridioides difficile, 16 h, C. difficile ribotype 027, 16 h at 37° C. anaerobically, read-out: MIC): 3.12 µM (≈ 0.535 µg/mL); MIC ([1]; Clostridioides difficile, 16 h, C. difficile ribotype 106, 16 h at 37° C. anaerobically, read-out: MIC): 1.56 µM (≈ 0.267 µg/mL)

Which MIC [1, 9] does the source give for `CN[C@H](CC(C)C)C(=O)N[C@H]1C(=O)N[C@@H](CC(N)=O)C(=O)N[C@H]2C(=O)N[C@H]3C(=O)N[C@H](C(=O)N[C@H](C(=O)O)c4cc(O)cc(O)c4-c4cc3ccc4O)[C@H](O)c3ccc(c(Cl)c3)Oc3cc2cc(c3O[C@@H]2O[C@H](CO)[C@@H](O)[C@H](O)[C@H]2O[C@H]2C[C@](C)(N)[C@H](O)[C@H](C)O2)Oc2ccc(cc2Cl)[C@H]1O` [Vancomycin, vancomycin] here?
The MIC was 0.39 µM (≈ 0.565 µg/mL).

And the MIC [1, 10]?
Its MIC is 0.39 µM (≈ 0.565 µg/mL).

What about the MIC ([1]; Clostridioides difficile, 16 h) of the same compound?
Its MIC is 0.39 µM (≈ 0.565 µg/mL).

Which results are given for Thuricin CD?
Sensitivity of bifidobacteria strains tested (bifidobacteria strains): No bifidobacteria strains tested were sensitive; Activity against Gram negative organisms tested (Gram negative organisms): no activity; Activity on treatment with Proteinase K [2]: lost; pH range in which active [3]: 2-10; Activity after heating at 90° C. (Heat sensitivity): reduction of activity; Activity after heating at 100° C. (Heat sensitivity): loss of activity; Temperature up to which heat stable / activity retained (Heat sensitivity): up to 95 °C; Temperature up to which heat-stable (Heat sensitivity): about 85 ° Centigrade; Time within which approximately 5×10^6 CFU of C. difficile per ml are killed (C. difficile R027 NAP1; 5 μM): ≤ 60 minutes; Time to reduce viable cells from ˜10^6/ml to zero (C. difficile R027 NAP1; 200 AU thuricin/ml, C. difficile PCR ribotype 027): ≤ 2 h; Time within which approximately 5×10^6 CFU of C. difficile per ml are killed (C. difficile R027 NAP1; 200 AU/ml): ≤ 180 minutes; Time within which ˜5×10^6 cfu of C. difficile per ml were killed (C. difficile R027 NAP1; 200 AU/ml): ≤ 180 min; Reduction of cell numbers of L. monocytogenes [4]: 1.5 log cycles; Effect on viability of Lb. casei 338 (Lb. casei 338): no effect; also recorded: did not affect; Effect on viability of B. lactis BB12 (B. lactis Bb12): no effect; also recorded: did not affect; Effect on OD600 nm of logarithmically growing C. difficile (C. difficile): gradual reduction of OD600 nm; Acetate kinase in the growth medium (lysis) (C. difficile; logarithmically growing C. difficile): release of the intracellular enzyme acetate kinase; MIC [1, 9]: 0.097 µM; MIC ([1]; C. difficile ribotype 027, 16 h at 37° C. anaerobically, read-out: MIC): 0.012 µM; MIC [1, 10]: 0.125 µM; Reduction of C. difficile compared with the control [5]: over 1000 fold; Effect on numbers of Bifidobacteria relative to control (Bifidobacteria): did not affect; Activity after incubation in simulated gastric juice ([6]; 2 hours): no reduction of activity; Activity after incubation in simulated ileal juice ([6]; 4 hours): no reduction of activity; Activity after incubation in simulated colon juice ([6]; 9 hours): no reduction of activity; Activity after incubation in ex vivo porcine gastric juice ([7]; 2 hr): no reduction in activity; Activity after incubation in ex vivo porcine ileal juice ([7]; 5 hr): no reduction in activity

With lacticin 3147 as the compound, how does the “Effect on Lactobacillus and Bifidobacterium populations” value [8] read?
The value was 3 log cycles.
